The values below come from patent US20160193148A1, “LIPOSOMAL FORMULATIONS FOR THE TREATMENT OF BACTERIAL INFECTIONS” (UNIVERSITY OF GEORGIA RESEARCH FOUNDATION, INC., priority 2013, published 2016).

The structures appear in SMILES notation.

The subject of the assay is R. equi. In words: Intracellular killing of R. equi in J774.A1 macrophages. It is filed as cell-based, Rhodococcus equi. As to conditions: 10 μg/mL; J774.A1 macrophages infected with virulent R. equi; 4 experiments. The method, then: The efficacy of liposomal gentamicin compared with clarithromycin or rifampin for intracellular killing of R. equi in J774.A1 macrophages were studies in this example. […] The final concentration of gentamicin in the liposome formulations was measured and the percentage of encapsulation was calculated.
In vitro infection of J774A.1 macrophages with virulent R. equi and subsequent treatment with liposomal gentamicin (G-DP or G-PEG), clarithromycin (CLR), or rifampin (RIF) at a concentration of 10 μg/mL was performed using a published methodology (i.e. Berghaus et al. Plasma pharmacokinetics, pulmonary distribution, and in vitro activity of gamithromycin in foals. J Vet Pharmacol Ther. 2012 February; 35(1):59-66). […] Fold reduction in the number of intracellular R. equi compared to untreated cells in J774.A1 macrophages infected with virulent R. equi are presented in FIG. 2, showing mean (±SD) of 4 independent experiments.

Take `CC[C@H]1OC(=O)[C@H](C)[C@@H](O[C@H]2C[C@@](C)(OC)[C@@H](O)[C@H](C)O2)[C@H](C)[C@@H](O[C@@H]2O[C@H](C)C[C@H](N(C)C)[C@H]2O)[C@](C)(OC)C[C@@H](C)C(=O)[C@H](C)[C@@H](O)[C@]1(C)O` [CLR, clarithromycin]: the “mean fold-reduction in the number of intracellular R. equi compared to untreated cells” value amounted to 1100 fold.

Turning to `CO[C@H]1/C=C/O[C@@]2(C)Oc3c(C)c(O)c4c(O)c(c(/C=N/N5CCN(C)CC5)c(O)c4c3C2=O)NC(=O)/C(C)=C\C=C\[C@H](C)[C@H](O)[C@@H](C)[C@@H](O)[C@@H](C)[C@H](OC(C)=O)[C@@H]1C` [RIF, rifampin], the “mean fold-reduction in the number of intracellular R. equi compared to untreated cells” value was 1500 fold.
